Assay results: US6822146B2, “Sulfonylurea-tolerant sunflower line M7” (priority 2000, dated 2004)
Where a name gives a salt, the structure may show the parent alone.

Tests used:
Orobanche cumana = experiment: Test E control of Orobanche cumana in resistant sunflower hybrid; format: in vivo; conditions: for relative efficacy in controlling Orobanche: Test E rates, metsulfuron-methyl compared with tribenuron-methyl
Procedure: The effect of the various treatments was evaluated 35 days after sowing. The sunflower roots were cleaned by washing in water, and the presence of Orobanche nodules was determined visually and by weighing root wet mass in comparison to check plants free of Orobanche infestation. […] The nodules caused by Orobanche increased root weight, and a correlation (r=0.7) was found between visual scores and weight measurements. Thus the weighing technique could be used to corroborate visual efficacy scorings. Orobanche emergence was also scored but found to be less useful to evaluate treatment efficiency at the evaluation timing of this test.
(§1) Based on the results from Test D, a modified protocol was developed to include three timings of post-emergence treatment. The hybrid BC4-M5M12 (female parent)×PHA155 restorer line (male parent) described in Test C was used in this test. Various herbicide programs were tested using three replications. […] Seed coatings of these formulated herbicides were applied to 6 kg of seeds in such amount that considering the distribution of the coated seeds in each pot, the herbicide active ingredient (a.i.) application rates per hectare were as indicated.
(§2) The treatments were applied similar to the methods described for Test D. Pre-emergence applications were broadcast only, not soil incorporated. For pre-emergence application, the pots were sprayed using the high rates of the herbicides two days after sowing the sunflower seeds. Post-emergence treatments were applied at the 4-6 leaf stage of sunflower (corresponding to early stage of Orobanche attachment; identified as “T1”), the 6-8 leaf stage of sunflower (corresponding to the mid stage of Orobanche attachment; nodules <5 mm diameter; identified as “T2”) and 8-12 leaf stage of sunflower (corresponding to late stage of Orobanche attachment; identified as “T3”). The mid-stage applications included the high as well as low application rates of each herbicide.
(§3) For comparison were also included in this test other acetolactate synthase-inhibiting herbicides reported in the literature as giving good weed control of Orobanche (L. García-Torres et al., Weed Research 1994, 34, 395-402; L. García-Torres et al., Weed Technology 1995, 9, 819-824; J. Hershenhorn et al., Weed Technology 1998, 12, 108-114).

Stellaria media = experiment: Test H weed control, field plots; format: in vivo; conditions: 36 days after treatment; g a.i./ha: tribenuron-methyl 22.5, metsulfuron-methyl 6, ethametsulfuron-methyl 16, imazapyr isopropylamine salt 15, aclonifen 1200
From the text: (§4) Field plots (2 m×5 m) were tilled to remove weed cover and then seeded in rows with the following weeds: Capsella bursa pastoris, Atriplex patula, Chenopodium album, Stellaria media, Mecurialis annua, Polygonum persicaria, Amaranthus retroflexus, Polygonum convolvulus, Polygonum aviculare, Viola arvensis, Matricaria inodora, Anagallis arvensis, Sinapis arvensis, Setaria viridis, Solanum nigrum and Echinochloa crusgalli. After 21 days from sowing, at which time the weeds had reached the 2- to 6-leaf stage, herbicide treatments were applied to the plots according to a complete randomized block design, with each herbicide treatment triply replicated. The herbicides were sprayed using standard flat fan nozzles moved perpendicular to the sown lines using water spray volumes of about 296 L/ha.
(§5) Assessments of weed control were made by visual inspection 36 days after herbicide treatment. A visual rating system was used based on a percentage scale from 0 to 100% compared to an adjacent untreated control plot. On this scale 0 represents no visual differences relative to an untreated control and 100 represents complete control of the given weed species.

Chenopodium album = experiment: Test H weed control, field plots; format: in vivo; conditions: 36 days after treatment; g a.i./ha: tribenuron-methyl 22.5, metsulfuron-methyl 6, ethametsulfuron-methyl 16, imazapyr isopropylamine salt 15, aclonifen 1200
From the text: as §4, §5

[1] = test system: Orobanche cumana (Race F); experiment: Test F sequential application to control Orobanche cumana; format: in vivo; conditions: post-emergence T3 15 g a.i./ha
Procedure: A greenhouse experiment was performed to identify the best sequential program compared to straight application of tribenuron-methyl or metsulfuron-methyl for control of Orobanche cumana (Race F). The dose range for optimum efficacy was also studied. Both herbicides were used as formulated compositions. […] BC4-M5M7×PHA155 is referred to below as “Hybrid 7”, and BC4-M5M12×PHA155 is referred to below as “Hybrid 12”.
Seed coating treatment was performed as described for Test D. Post-emergence treatments were applied at the 2-4 leaf stage of sunflower (corresponding to early stage of Orobanche attachment; identified as “T1”), the 6 leaf stage of sunflower (corresponding to the mid stage of Orobanche attachment; nodules <5 mm diameter; identified as “T2”) and 8 leaf stage of sunflower (corresponding to late stage of Orobanche attachment; identified as “T3”).
The efficacy was evaluated visually as described for Test D except that the efficacy was assessed ten days later than for Tests D and E. The later evaluation allowed observing any reduction of efficacy due to late Orobanche emergence or re-growth of treated nodules. Efficacy in controlling Orobanche attached to roots was evidenced by nodules comprising black necrotic tissues with no apparent active meristematic area. These nodules could be easily crushed between fingers.

Atriplex patula = experiment: Test H weed control, field plots; format: in vivo; parameters: concentration or dose not given beside the values; conditions: 36 days after treatment; g a.i./ha: tribenuron-methyl 22.5, metsulfuron-methyl 6, ethametsulfuron-methyl 16, imazapyr isopropylamine salt 15, aclonifen 1200
From the text: as §4, §5

Solanum nigrum = experiment: Test H weed control, field plots; format: in vivo; parameters: concentration or dose not given beside the values; conditions: 36 days after treatment; g a.i./ha: tribenuron-methyl 22.5, metsulfuron-methyl 6, ethametsulfuron-methyl 16, imazapyr isopropylamine salt 15, aclonifen 1200
From the text: as §4, §5

Polygonum persicaria = experiment: Test H weed control, field plots; format: in vivo; parameters: concentration or dose not given beside the values; conditions: 36 days after treatment; g a.i./ha: tribenuron-methyl 22.5, metsulfuron-methyl 6, ethametsulfuron-methyl 16, imazapyr isopropylamine salt 15, aclonifen 1200
From the text: as §4, §5

Sinapis arvensis = experiment: Test H weed control, field plots; format: in vivo; parameters: concentration or dose not given beside the values; conditions: 36 days after treatment; g a.i./ha: tribenuron-methyl 22.5, metsulfuron-methyl 6, ethametsulfuron-methyl 16, imazapyr isopropylamine salt 15, aclonifen 1200
From the text: as §4, §5

Capsella bursa pastoris = experiment: Test H weed control, field plots; format: in vivo; parameters: concentration or dose not given beside the values; conditions: 36 days after treatment; g a.i./ha: tribenuron-methyl 22.5, metsulfuron-methyl 6, ethametsulfuron-methyl 16, imazapyr isopropylamine salt 15, aclonifen 1200
From the text: as §4, §5

Matricaria inodora = experiment: Test H weed control, field plots; format: in vivo; parameters: concentration or dose not given beside the values; conditions: 36 days after treatment; g a.i./ha: tribenuron-methyl 22.5, metsulfuron-methyl 6, ethametsulfuron-methyl 16, imazapyr isopropylamine salt 15, aclonifen 1200
From the text: as §4, §5

Setaria viridis = experiment: Test H weed control, field plots; format: in vivo; parameters: concentration or dose not given beside the values; conditions: 36 days after treatment; g a.i./ha: tribenuron-methyl 22.5, metsulfuron-methyl 6, ethametsulfuron-methyl 16, imazapyr isopropylamine salt 15, aclonifen 1200
From the text: as §4, §5

Mercurialis annua = experiment: Test H weed control, field plots; format: in vivo; parameters: concentration or dose not given beside the values; conditions: 36 days after treatment; g a.i./ha: tribenuron-methyl 22.5, metsulfuron-methyl 6, ethametsulfuron-methyl 16, imazapyr isopropylamine salt 15, aclonifen 1200
From the text: as §4, §5

Amaranthus retroflexus = experiment: Test H weed control, field plots; format: in vivo; parameters: concentration or dose not given beside the values; conditions: 36 days after treatment; g a.i./ha: tribenuron-methyl 22.5, metsulfuron-methyl 6, ethametsulfuron-methyl 16, imazapyr isopropylamine salt 15, aclonifen 1200
From the text: as §4, §5

Viola arvensis = experiment: Test H weed control, field plots; format: in vivo; parameters: concentration or dose not given beside the values; conditions: 36 days after treatment; g a.i./ha: tribenuron-methyl 22.5, metsulfuron-methyl 6, ethametsulfuron-methyl 16, imazapyr isopropylamine salt 15, aclonifen 1200
From the text: as §4, §5

Echinochloa crus-galli = experiment: Test H weed control, field plots; format: in vivo; parameters: concentration or dose not given beside the values; conditions: 36 days after treatment; g a.i./ha: tribenuron-methyl 22.5, metsulfuron-methyl 6, ethametsulfuron-methyl 16, imazapyr isopropylamine salt 15, aclonifen 1200
From the text: as §4, §5

Polygonum convolvulus = experiment: Test H weed control, field plots; format: in vivo; parameters: concentration or dose not given beside the values; conditions: 36 days after treatment; g a.i./ha: tribenuron-methyl 22.5, metsulfuron-methyl 6, ethametsulfuron-methyl 16, imazapyr isopropylamine salt 15, aclonifen 1200
From the text: as §4, §5

Polygonum aviculare = experiment: Test H weed control, field plots; format: in vivo; parameters: concentration or dose not given beside the values; conditions: 36 days after treatment; g a.i./ha: tribenuron-methyl 22.5, metsulfuron-methyl 6, ethametsulfuron-methyl 16, imazapyr isopropylamine salt 15, aclonifen 1200
From the text: as §4, §5

Anagallis arvensis = experiment: Test H weed control, field plots; format: in vivo; parameters: concentration or dose not given beside the values; conditions: 36 days after treatment; g a.i./ha: tribenuron-methyl 22.5, metsulfuron-methyl 6, ethametsulfuron-methyl 16, imazapyr isopropylamine salt 15, aclonifen 1200
From the text: as §4, §5

[2] = test system: BC4-M5M12 × PHA155 hybrid; experiment: Test E injury to sunflower hybrid; format: in vivo; conditions: in vivo
Procedure: as §1, §2, §3

BC4-M5M7 = experiment: Test B greenhouse phytotoxicity, BC4-M5M7; format: in vivo, sunflower; conditions: in vivo
Procedure: (§6) A greenhouse experiment was conducted to evaluate the spectrum of tolerance of three homozygous resistant mutants to various herbicides inhibiting acetolactate synthase (ALS) as their mode of action. The inbred lines tested were the 5th generation self-pollinated maintainers, M5M7, M5M11 and M5M12, as well as the 4th generation male sterile back-crosses BC4-M5M7, BC4-M5M11 and BC4-M5M12. Treatments of formulated herbicides were applied post-emergence at the 4-leaf stage. Application rates of the test herbicides were chosen to coincide with the rates commonly used in the crops for which they are registered. The application rate of imazethapyr was chosen to match the rate recommended to control parasitic weeds in sunflowers by L. García-Torres et al., Weed Technology 1995, 9, 819-824. Wild type H89 inbred sunflower was not included in this test, because the many of the tested herbicides are known to be efficacious in controlling volunteer sunflower as a weed. Treatments were replicated twice. […] A rating of 0% phytotoxicity means no crop injury.

BC4-M5M11 = experiment: Test B greenhouse phytotoxicity, BC4-M5M11; format: in vivo, sunflower; conditions: in vivo
Procedure: as §6

[3] = test system: homozygous progeny of the three mutant sources; format: in vivo, sunflower; conditions: Test B application rates, post-emergence
Procedure: as §6

M5M11 = experiment: Test B greenhouse phytotoxicity, M5M11; format: in vivo, sunflower; conditions: in vivo
Procedure: as §6

M5M7 = experiment: Test B greenhouse phytotoxicity, M5M7; format: in vivo, sunflower; conditions: in vivo
Procedure: as §6

BC4-M5M12 = experiment: Test B greenhouse phytotoxicity, BC4-M5M12; format: in vivo, sunflower; conditions: in vivo
Procedure: as §6

M5M12 = experiment: Test B greenhouse phytotoxicity, M5M12; format: in vivo, sunflower; conditions: in vivo
Procedure: as §6

O. cernua = conditions: preemergence application of a low dose (2 to 6 g/ha), with sunflower tolerance; cited from earlier work

Which “relative efficacy in controlling Orobanche” value (Orobanche cumana) does the source give for CC(C)C1(C)N=C(c2ncccc2C(=O)O)NC1=O (stereo not shown) [Imazapyr, isopropylamine salt, Imazapyr] here?
The value was “less efficacious in controlling Orobanche”.

And the Control (Orobanche cumana; post-emergence 15 g a.i./ha at T3)?
The Control was 72%.

And the “weed control, visual rating: Stellaria media” value (Stellaria media)?
Its value is 100%.

And the “weed control, visual rating: Chenopodium album” value (Chenopodium album)?
The value was 87%.

What about the “% Control in Hybrid 7” value [1] of the same molecule?
The value was 97%.

What about the “% Control in Hybrid 12” value [1] of the same molecule?
The value was 97%.

What about the “weed control, visual rating: Atriplex patula” value (Atriplex patula) of the same molecule?
Its value is 85%.

What about the “weed control, visual rating: Solanum nigrum” value (Solanum nigrum) of the same molecule?
The value was 100%.

What about the “weed control, visual rating: Polygonum persicaria” value (Polygonum persicaria) of the same molecule?
Its value is 100%.

And the “weed control, visual rating: Sinapis arvensis” value (Sinapis arvensis)?
Its value is 100%.

What about the “weed control, visual rating: Capsella bursa pastoris” value (Capsella bursa pastoris) of the same molecule?
The value was 100%.

What about the “weed control, visual rating: Matricaria inodora” value (Matricaria inodora) of the same molecule?
The value was 43%.

What about the “weed control, visual rating: Setaria viridis” value (Setaria viridis) of the same molecule?
Its value is 93%.

What about the “weed control, visual rating: Mercurialis annua” value (Mercurialis annua) of the same molecule?
The value was 47%.

And the “weed control, visual rating: Amaranthus retroflexus” value (Amaranthus retroflexus)?
Its value is 84%.

What about the “weed control, visual rating: Viola arvensis” value (Viola arvensis) of the same molecule?
Its value is 0%.

And the “weed control, visual rating: Echinochloa crus-galli” value (Echinochloa crus-galli)?
Its value is 27%.

And the “weed control, visual rating: Polygonum convolvulus” value (Polygonum convolvulus)?
Its value is 94%.

And the “weed control, visual rating: Polygonum aviculare” value (Polygonum aviculare)?
Its value is 0%.

What about the “weed control, visual rating: Anagallis arvensis” value (Anagallis arvensis) of the same molecule?
The value was 100%.

And the Injury [2]?
Its Injury is 0%.

What about the “sunflower phytotoxicity” value [2] of the same molecule?
Its value is “transitory phytotoxicity symptoms”.

With COc1nc(C)nc(NC(=O)NS(=O)(=O)c2ccccc2Cl)n1 [Chlorsulfuron, chlorsulfuron] as the molecule, how does the “Maximum Phytotoxicity” value (BC4-M5M7) read?
Its value is 45%.

And the “relative efficacy in controlling Orobanche” value (Orobanche cumana)?
The value was “less efficacious in controlling Orobanche”.

What about the Control (Orobanche cumana; pre-emergence 2 g a.i./ha) of the same molecule?
Its Control is 13%.

What about the Control (Orobanche cumana; pre-emergence 10 g a.i./ha) of the same molecule?
The Control was 58%.

What about the “Maximum Phytotoxicity” value (BC4-M5M11) of the same molecule?
Its value is 50%.

What about the “tolerance of the mutants” value [3] of the same molecule?
The value was “somewhat sensitive”.

What about the “Maximum Phytotoxicity” value (M5M11) of the same molecule?
The value was 50%.

And the “Maximum Phytotoxicity” value (M5M7)?
Its value is 47.5%.

What about the Injury [2] of the same molecule?
The Injury was 0%.

And the “Maximum Phytotoxicity” value (BC4-M5M12)?
Its value is 45%.

And the “Maximum Phytotoxicity” value (M5M12)?
Its value is 45%.

What about the “control of O. cernua” value (O. cernua) of the same molecule?
The value was 75-85%.
